# US8802664B2 (Bioproject, priority 2010, dated 2014)
# Experiments:
# human H4 receptor = target: T1, human H4 receptor (Homo sapiens, UniProt Q9H3N8); test: [3H]Histamine binding on membranes of CHO cells stably expressing human H4 receptor
# T1 construct: expressed in transfected cells
# Outline: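 Membranes from sub-confluent CHO-hH4 cells, 20 μg protein per well, were incubated in 50 mM Tris/HCl, 0.5 mM EDTA, pH 7.4. Nonspecific binding was defined with 10 μM JNJ 7777120. Bound radioactivity was collected on PEI-soaked GF/B filters and counted by liquid scintillation.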
SMILES,Ki or IC50 activity class (human H4 receptor) [nM],melting point [°C]
"CN1CCC(OC(c2cccc(-c3cncnc3)c2)c2nc3ccccc3s2)CC1 (centres unmarked) [Example 216, 2-[(1-methylpiperidin-4-yloxy)(3-pyrimidin-5-yl-phenyl)methyl]benzothiazole]",< 300,85
"CN1CCC(OC(c2cccc(OCCCN)c2)c2nc3ccccc3[nH]2)CC1 (centres unmarked) [Example 327, 3-{3-[(1H-benzimidazol-2-yl)(1-methylpiperidin-4-yloxy)methyl]phenoxy}propylamine]",< 300,97
"CN1CCC(OC(c2cccc(F)c2)c2nc3ccccc3[nH]2)CC1 (centres unmarked) [Example 155, 2-[(3-fluorophenyl)(1-methylpiperidin-4-yloxy)methyl]-1H-benzimidazole]",< 300,93
"CN1CCC(NC(c2cccc(OC(F)(F)F)c2)c2nc3ccccc3[nH]2)CC1 (centres unmarked) [Example 60, [(1H-benzimidazol-2-yl)(3-trifluoromethoxyphenyl)methyl](1-methylpiperidin-4-yl)amine]",< 30,82
"CN1CCC(OC(c2ccccc2)c2nc3cc(F)ccc3[nH]2)CC1 (centres unmarked) [Example 166, 5-fluoro-2-[(1-methylpiperidin-4-yloxy)phenylmethyl]-1H-benzimidazole]",< 30,134
"CN1CCC(OC(c2cccc(C#CCO)c2)c2nc3ccccc3[nH]2)CC1 (centres unmarked) [Example 190, 3-{3-[(1H-benzimidazol-2-yl)(1-methylpiperidin-4-yloxy)methyl]phenyl}prop-2-yn-1-ol]",< 300,117 to 120
"CN1CCC(OC(c2cccc(C#CCCNC(=N)NC(=O)OC(C)(C)C)c2)c2nc3ccccc3s2)CC1 (centres unmarked) [Example 399, N-tert-butoxycarbonyl-N′-(4-{3-[(benzothiazol-2-yl)(1-methylpiperidin-4-yloxy)methyl]phenyl}but-3-ynyl)guanidine]",< 300,120
"CN1CCC(OC(c2cccc(Br)c2)c2nc3ccccc3s2)CC1 (centres unmarked) [Example 27, 2-[(3-bromo-phenyl)(1-methylpiperidin-4-yloxy)methyl]benzothiazole]",< 30,99
"CN1CCC(OC(c2nc3ccccc3[nH]2)c2cccc(I)c2F)CC1 (centres unmarked) [Example 334, 2-[(2-fluoro-3-iodophenyl)(1-methylpiperidin-4-yloxy)methyl]-1H-benzimidazole]",< 300,125
"CN1CCC(NC(c2cccc(OCCCCN)c2)c2nc3ccccc3[nH]2)CC1 (centres unmarked) [Example 367, [[3-(4-aminobutoxy)phenyl](1H-benzimidazol-2-yl)methyl](1-methylpiperidin-4-yl)amine]",< 300,68
"Cc1ccc(C(OC2CCN(C)CC2)c2nc3ccccc3[nH]2)cc1 (centres unmarked) [Example 177, 2-[(1-methylpiperidin-4-yloxy)-p-tolyl-methyl]-1H-benzimidazole]",< 300,102
"CN1CCC(OC(c2cccc(OCCN)c2)c2nc3ccccc3[nH]2)CC1 (centres unmarked) [Example 291, 2-{3-[(1H-benzimidazol-2-yl)(1-methylpiperidin-4-yloxy)methyl]phenoxy}ethylamine]",< 300,90
"CN1CCC(OC(c2cccc(CCCCCCNC(=N)NC(=O)OC(C)(C)C)c2)c2nc3ccccc3[nH]2)CC1 (centres unmarked) [Example 364, N-tert-butoxycarbonyl-N′-(6-{3-[(1H-benzimidazol-2-yl)(1-methylpiperidin-4-yloxy)methyl]phenyl}hexyl)guanidine]",< 1000,90
"CN1CCC(NC(c2cccc(O)c2)c2nc3ccccc3[nH]2)CC1 (centres unmarked) [Example 126, 3-[(1H-benzimidazol-2-yl)(1-methylpiperidin-4-ylamino)methyl]phenol]",< 300,230
"CN1CCC(OC(c2cccc(SCCNC(N)=O)c2)c2nc3ccccc3[nH]2)CC1 (centres unmarked) [Example 298, (2-{3-[(1H-benzimidazol-2-yl)(1-methylpiperidin-4-yloxy)methyl]phenylsulfanyl}ethyl)urea]",< 1000,136
"CN1CCC(OC(c2cccc(OCCCCN3CCN(C(=O)OC(C)(C)C)CC3)c2)c2nc3ccccc3[nH]2)CC1 (centres unmarked) [Example 343, 4-(4-{3-[(1H-benzimidazol-2-yl)(1-methylpiperidin-4-yloxy)methyl]phenoxy}butyl)piperazine-1-carboxylic acid tert-butyl ester]",< 300,64
"CN1CCC(OC(c2cccc(-c3ccc(C(F)(F)F)cc3)c2)c2nc3ccccc3[nH]2)CC1 (centres unmarked) [Example 119, 2-[(1-methylpiperidin-4-yloxy)(4′-trifluoromethylbiphenyl-3-yl)methyl]-1H-benzimidazole]",< 300,95
"CN1CCC(OC(c2ccc3c(c2)OCCO3)c2nc3ccccc3[nH]2)CC1 (centres unmarked) [Example 300, 2-[(2,3-dihydrobenzo[1,4]dioxin-6-yl)(1-methylpiperidin-4-yloxy)methyl]-1H-benzimidazole]",< 300,203
"CN1CCC(NC(c2cccc(OC3CCCCO3)c2)c2nc3ccccc3[nH]2)CC1 (centres unmarked) [Example 120, {(1H-benzimidazol-2-yl)[3-(tetrahydropyran-2-yloxy)phenyl]methyl}(1-methylpiperidin-4-yl)amine]",< 1000,97
"CN1CCC(OC(c2cccc(C#CCCO)c2)c2nc3ccccc3[nH]2)CC1 (centres unmarked) [Example 191, 4-{3-[(1H-benzimidazol-2-yl)(1-methylpiperidin-4-yloxy)methyl]phenyl}but-3-yn-1-ol]",< 300,104 to 108
"CN1CCC(OC(c2cccc(C#CCCCO)c2)c2nc3ccccc3[nH]2)CC1 (centres unmarked) [Example 192, 5-{3-[(1H-benzimidazol-2-yl)(1-methylpiperidin-4-yloxy)methyl]phenyl}pent-4-yn-1-ol]",< 300,85
"CN1CCC(NC(c2cccc(OCc3cccc(F)c3F)c2)c2nc3ccccc3[nH]2)CC1 (centres unmarked) [Example 162, {(1H-benzimidazol-2-yl)[3-(2,3-difluoro-benzyloxy)phenyl]methyl}(1-methylpiperidin-4-yl)amine]",< 30,151

# Results, then the compound that gave them:
Ki or IC50 activity class (human H4 receptor) [nM],melting point [°C],SMILES
< 1000,139,CN1CCC(OC(c2nc3ccccc3[nH]2)c2cc(C(C)(C)C)ccc2O)CC1 (centres unmarked) [Example 590]
< 30,146,Cc1cc(F)cc(O)c1C(OC1CCN(C)CC1)c1nc2ccccc2[nH]1 (centres unmarked) [Example 600]
< 1000,142,CN1CCC(OC(c2nc3ccccc3[nH]2)c2cc(F)cc(F)c2O)CC1 (centres unmarked) [Example 579]
< 300,130,CN1CCC(OC(c2nc3ccccc3[nH]2)c2cc(C(C)(C)c3ccccc3)ccc2O)CC1 (centres unmarked) [Example 604]
< 30,142,CN1CCC(OC(c2nc3ccccc3[nH]2)c2ccc(Cl)cc2O)CC1 (centres unmarked) [Example 585]
< 300,75,CN1CCC(OC(c2nc3c(F)c(F)c(F)cc3[nH]2)c2cc(OC(F)(F)F)ccc2F)CC1 (centres unmarked) [Example 510]
< 30,128,CN1CCC(OC(c2ccc3c(c2)OCCC3)c2nc3ccccc3[nH]2)CC1 (centres unmarked) [Example 543]
< 300,85,"CN1CCC(OC(c2cccc(SCCCCO)c2)c2nc3cc(F)ccc3[nH]2)CC1 (centres unmarked) [Example 427, 4-{3-[(5-fluoro-1H-benzimidazol-2-yl)(1-methylpiperidin-4-yloxy)methyl]phenylsulfanyl}butan-1-ol]"
< 1000,140,CN1CCC(OC(c2nc3ccccc3[nH]2)c2cc(-c3ccccc3)ccc2O)CC1 (centres unmarked) [Example 589]
< 30,139,Cc1cc(O)c(C(OC2CCN(C)CC2)c2nc3ccccc3[nH]2)cc1C (centres unmarked) [Example 611]
< 1000,161,CN1CCC(OC(c2nc3ccccc3[nH]2)c2cc(Cl)cc(Cl)c2O)CC1 (centres unmarked) [Example 580]
< 30,151,"Cc1ccc(O)c(C(OC2CCN(C)CC2)c2nc3ccccc3[nH]2)c1 (centres unmarked) [Example 578, 2-[(1H-benzimidazol-2-yl)(1-methylpiperidin-4-yloxy)methyl]-4-methylphenol]"
< 1000,70,"CN1CCC(OC(c2cccc(Br)c2)c2nc3cc(F)c(F)cc3[nH]2)CC1 (centres unmarked) [Example 469, 2-[(3-bromophenyl)(1-methylpiperidin-4-yloxy)methyl]-5,6-difluoro-1H-benzimidazole]"
< 30,116,CCSc1ccc(O)c(C(OC2CCN(C)CC2)c2nc3ccccc3[nH]2)c1 (centres unmarked) [Example 588]
< 300,89,"CN1CCC(OC(c2cccc(Br)c2)c2nc3cc(F)ccc3[nH]2)CC1 (single isomer, unassigned) [Example 567, 2-[(3-bromophenyl)(1-methylpiperidin-4-yloxy)methyl]-5-fluoro-1H-benzimidazole]"
< 30,211,"Cc1cc(F)c(C(OC2CCN(C)CC2)c2nc3ccccc3[nH]2)c(F)c1 (centres unmarked) [Example 523, 2-[(2,6-difluoro-4-methylphenyl)(1-methylpiperidin-4-yloxy)methyl]-1H-benzimidazole]"
< 300,61,"CN1CCC(COC(c2cccc(Br)c2)c2nc3ccccc3[nH]2)C1 (centres unmarked) [Example 414, 2-[(3-bromo-phenyl)(1-methylpyrrolidin-3-ylmethoxy)methyl]-1H-benzimidazole]"
< 300,92,Cc1ccc(C(OC2CCN(C)CC2)c2nc3ccccc3[nH]2)cc1F (centres unmarked) [Example 554]
